Reference: ChEMBL document CHEMBL1201862, “PubChem BioAssay data set” (2004)
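Five compound concentrations were applied to cells in 96-well plates for 48 hours; endpoints were derived by simple linear interpolation of the resulting dose-response curve. Here, GI50 denotes the concentration required for 50% inhibition of growth.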 Active and inactive are the calls of the source. No stated cut-off is given here; in the data, active = GI50 up to about 1.1 µM and inactive = higher.

Legend:
Assay in all cases: inhibition of tumour cell growth, NCI panel, 48 h
A498 = tested on: A498
A549 = tested on: A549
CCRF-CEM = tested on: CCRF-CEM
DMS-273 = tested on: DMS-273
EKVX = tested on: EKVX
HCT-116 = tested on: HCT-116
HL-60 = tested on: HL-60
HOP-62 = tested on: HOP-62
HOP-92 = tested on: HOP-92
HT-29 = tested on: HT-29
IGROV-1 = tested on: IGROV-1
KM12 = tested on: KM12
M14 = tested on: M14
M19-MEL = tested on: M19-MEL
MOLT-4 = tested on: MOLT-4
NCI-H226 = tested on: NCI-H226
NCI-H23 = tested on: NCI-H23
NCI-H460 = tested on: NCI-H460
NCI-H522 = tested on: NCI-H522
OVCAR-5 = tested on: OVCAR-5
OVCAR-8 = tested on: OVCAR-8
RXF 393 = tested on: RXF 393
SF-268 = tested on: SF-268
SF-295 = tested on: SF-295
SK-MEL-28 = tested on: SK-MEL-28
SK-OV-3 = tested on: SK-OV-3
SNB-19 = tested on: SNB-19
SNB-78 = tested on: SNB-78
SR = tested on: SR
TK-10 = tested on: TK-10
U-251 = tested on: U-251
UACC-257 = tested on: UACC-257
UACC-62 = tested on: UACC-62
UO-31 = tested on: UO-31
786-0 = tested on: 786-0
ACHN = tested on: ACHN
CAKI-1 = tested on: CAKI-1
COLO 205 = tested on: COLO 205
DMS-114 = tested on: DMS-114
K562 = tested on: K562
LXFL 529 = tested on: LXFL 529
Malme-3M = tested on: Malme-3M
OVCAR-3 = tested on: OVCAR-3
OVCAR-4 = tested on: OVCAR-4
RPMI-8226 = tested on: RPMI-8226
SK-MEL-2 = tested on: SK-MEL-2
SN12C = tested on: SN12C
SW-620 = tested on: SW-620
XF498 = tested on: XF498
BT-549 = tested on: BT-549
DU-145 = tested on: DU-145
HCC 2998 = tested on: HCC 2998
HCT-15 = tested on: HCT-15
Hs-578T = tested on: Hs-578T
LOX IMVI = tested on: LOX IMVI
MCF7 = tested on: MCF7
MDA-MB-231 = tested on: MDA-MB-231
MDA-MB-435 = tested on: MDA-MB-435
MDA-N = tested on: MDA-N
NCI/ADR-RES = tested on: NCI/ADR-RES
PC-3 = tested on: PC-3
SF-539 = tested on: SF-539
SK-MEL-5 = tested on: SK-MEL-5
SNB-75 = tested on: SNB-75
T47D = tested on: T47D

CCSc1c2ccccc2nc2c(OC)ccc(OC)c12
GI50 (A498): 31 µM (inactive)
GI50 (A549): 70.6 µM (inactive)
GI50 (CCRF-CEM): 36.3 µM (inactive)
GI50 (DMS-273): 21.9 µM (inactive)
GI50 (EKVX): > 100 µM (inactive)
GI50 (HCT-116): 20.1 µM (inactive)
GI50 (HL-60): 23.3 µM (inactive)
GI50 (HOP-62): 36.5 µM (inactive)
GI50 (HOP-92): 22.3 µM (inactive)
GI50 (HT-29): 25.7 µM (inactive)
GI50 (IGROV-1): 26.7 µM (inactive)
GI50 (KM12): 24.7 µM (inactive)
GI50 (M14): 35.7 µM (inactive)
GI50 (M19-MEL): 18.5 µM (inactive)
GI50 (MOLT-4): 22 µM (inactive)
GI50 (NCI-H226): 25.1 µM (inactive)
GI50 (NCI-H23): > 10 µM (inactive)
GI50 (NCI-H460): 20.7 µM (inactive)
GI50 (NCI-H522): 41.2 µM (inactive)
GI50 (OVCAR-5): 42.3 µM (inactive)
GI50 (OVCAR-8): 22.1 µM (inactive)
GI50 (RXF 393): 18.6 µM (inactive)
GI50 (SF-268): 22.8 µM (inactive)
GI50 (SF-295): 25.2 µM (inactive)
GI50 (SK-MEL-28): 19.8 µM (inactive)
GI50 (SK-OV-3): 24.7 µM (inactive)
GI50 (SNB-19): 29.1 µM (inactive)
GI50 (SNB-78): 14.5 µM (inactive)
GI50 (SR): 23.9 µM (inactive)
GI50 (TK-10): 33.8 µM (inactive)
GI50 (U-251): 19.3 µM (inactive)
GI50 (UACC-257): 22.4 µM (inactive)
GI50 (UACC-62): 20.6 µM (inactive)
GI50 (UO-31): 25.9 µM (inactive)

O=C1CCN2C(=O)CCN12
GI50 (786-0): > 100 µM (inactive)
GI50 (A498): > 100 µM (inactive)
GI50 (A549): > 100 µM (inactive)
GI50 (ACHN): > 100 µM (inactive)
GI50 (CAKI-1): > 100 µM (inactive)
GI50 (CCRF-CEM): > 100 µM (inactive)
GI50 (COLO 205): > 100 µM (inactive)
GI50 (DMS-114): > 100 µM (inactive)
GI50 (EKVX): > 100 µM (inactive)
GI50 (HCT-116): > 100 µM (inactive)
GI50 (HL-60): > 100 µM (inactive)
GI50 (HOP-62): > 100 µM (inactive)
GI50 (HOP-92): > 100 µM (inactive)
GI50 (HT-29): > 100 µM (inactive)
GI50 (K562): > 100 µM (inactive)
GI50 (KM12): > 100 µM (inactive)
GI50 (LXFL 529): > 100 µM (inactive)
GI50 (M14): > 100 µM (inactive)
GI50 (M19-MEL): > 100 µM (inactive)
GI50 (MOLT-4): > 100 µM (inactive)
GI50 (Malme-3M): > 100 µM (inactive)
GI50 (NCI-H226): > 100 µM (inactive)
GI50 (NCI-H23): > 100 µM (inactive)
GI50 (NCI-H460): > 100 µM (inactive)
GI50 (NCI-H522): > 100 µM (inactive)
GI50 (OVCAR-3): > 100 µM (inactive)
GI50 (OVCAR-4): > 100 µM (inactive)
GI50 (OVCAR-5): > 100 µM (inactive)
GI50 (OVCAR-8): > 100 µM (inactive)
GI50 (RPMI-8226): > 100 µM (inactive)
GI50 (SF-268): > 100 µM (inactive)
GI50 (SF-295): > 100 µM (inactive)
GI50 (SK-MEL-28): > 100 µM (inactive)
GI50 (SK-MEL-2): > 100 µM (inactive)
GI50 (SK-OV-3): > 100 µM (inactive)
GI50 (SN12C): > 100 µM (inactive)
GI50 (SNB-19): > 100 µM (inactive)
GI50 (SNB-78): > 100 µM (inactive)
GI50 (SR): > 100 µM (inactive)
GI50 (SW-620): > 100 µM (inactive)
GI50 (TK-10): > 100 µM (inactive)
GI50 (U-251): > 100 µM (inactive)
GI50 (UACC-257): > 100 µM (inactive)
GI50 (UACC-62): > 100 µM (inactive)
GI50 (UO-31): > 100 µM (inactive)
GI50 (XF498): > 100 µM (inactive)

c1c[nH]c(C23C4C5C6C4C2C6C53)n1 (centres undefined)
GI50 (786-0): > 100 µM (inactive)
GI50 (A498): > 100 µM (inactive)
GI50 (A549): > 100 µM (inactive)
GI50 (ACHN): > 100 µM (inactive)
GI50 (BT-549): > 100 µM (inactive)
GI50 (CAKI-1): > 100 µM (inactive)
GI50 (CCRF-CEM): > 100 µM (inactive)
GI50 (COLO 205): > 100 µM (inactive)
GI50 (DU-145): > 100 µM (inactive)
GI50 (EKVX): > 100 µM (inactive)
GI50 (HCC 2998): > 100 µM (inactive)
GI50 (HCT-116): > 100 µM (inactive)
GI50 (HCT-15): > 100 µM
GI50 (HL-60): > 100 µM (inactive)
GI50 (HOP-62): > 100 µM (inactive)
GI50 (HOP-92): > 100 µM (inactive)
GI50 (HT-29): > 100 µM (inactive)
GI50 (Hs-578T): > 100 µM (inactive)
GI50 (IGROV-1): > 100 µM (inactive)
GI50 (K562): > 100 µM (inactive)
GI50 (KM12): > 100 µM (inactive)
GI50 (LOX IMVI): > 100 µM (inactive)
GI50 (M14): > 100 µM (inactive)
GI50 (MCF7): > 100 µM (inactive)
GI50 (MDA-MB-231): > 100 µM (inactive)
GI50 (MDA-MB-435): > 100 µM (inactive)
GI50 (MDA-N): > 100 µM (inactive)
GI50 (MOLT-4): > 100 µM (inactive)
GI50 (Malme-3M): > 100 µM (inactive)
GI50 (NCI-H226): > 100 µM (inactive)
GI50 (NCI-H23): > 100 µM (inactive)
GI50 (NCI-H460): > 100 µM (inactive)
GI50 (NCI-H522): > 100 µM (inactive)
GI50 (NCI/ADR-RES): > 100 µM (inactive)
GI50 (OVCAR-3): > 100 µM (inactive)
GI50 (OVCAR-4): 30.6 µM (inactive)
GI50 (OVCAR-5): > 100 µM (inactive)
GI50 (OVCAR-8): > 100 µM (inactive)
GI50 (PC-3): > 100 µM (inactive)
GI50 (RPMI-8226): > 100 µM (inactive)
GI50 (RXF 393): > 100 µM (inactive)
GI50 (SF-268): > 100 µM (inactive)
GI50 (SF-295): > 100 µM (inactive)
GI50 (SF-539): > 100 µM (inactive)
GI50 (SK-MEL-28): > 100 µM (inactive)
GI50 (SK-MEL-2): > 100 µM (inactive)
GI50 (SK-MEL-5): > 100 µM (inactive)
GI50 (SK-OV-3): > 100 µM (inactive)
GI50 (SN12C): > 100 µM (inactive)
GI50 (SNB-19): > 100 µM (inactive)
GI50 (SNB-75): > 100 µM (inactive)
GI50 (SR): > 100 µM (inactive)
GI50 (SW-620): > 100 µM (inactive)
GI50 (T47D): > 100 µM (inactive)
GI50 (TK-10): > 100 µM (inactive)
GI50 (U-251): > 100 µM (inactive)
GI50 (UACC-257): > 100 µM (inactive)
GI50 (UACC-62): > 100 µM (inactive)
GI50 (UO-31): > 100 µM (inactive)
